Data on eight molecules can be found in PubChem BioAssay AID1259407 (Chemical Carcinogenesis Research Information System (CCRIS), 2018).

In this series the test system is CCRIS mutagenicity, Ames/micronucleus/aberration tests. The series can be described thus: CCRIS mutagenicity studies.
The mark [1] stands for this setting: Test System: AMES SALMONELLA TYPHIMURIUM, Strain/Indicator: TA98, Metabolic Activation: NONE, Method: PREINCUBATION
[2] abbreviates: Test System: AMES SALMONELLA TYPHIMURIUM, Strain/Indicator: TA100, Metabolic Activation: NONE, Method: PREINCUBATION
Where [3] appears, read: Test System: AMES SALMONELLA TYPHIMURIUM, Strain/Indicator: TA1535, Metabolic Activation: NONE, Method: PREINCUBATION
Setting [4] is: Test System: AMES SALMONELLA TYPHIMURIUM, Strain/Indicator: TA1537, Metabolic Activation: NONE, Method: PREINCUBATION
[5] abbreviates: Test System: AMES SALMONELLA TYPHIMURIUM, Strain/Indicator: TA98, Metabolic Activation: NONE, Method: STANDARD PLATE.
The mark [6] stands for this setting: Test System: AMES SALMONELLA TYPHIMURIUM, Strain/Indicator: TA100, Metabolic Activation: NONE, Method: STANDARD PLATE.

Structures are written as SMILES. Entries after “also recorded” stand apart in the source; their conditions may differ. Calls of active or inactive are those of the source. How the calls were made is not given here.

For the molecule `CC(=O)c1cc(NC(N)=O)ccc1OCC(O)CNC(C)(C)C` (centres undefined), the mutagenic call was “inactive; negative” under setting [1]; “inactive; negative” (Test System: AMES SALMONELLA TYPHIMURIUM, Strain/Indicator: TA98, Metabolic Activation: RAT, LIVER, S-9, AROCLOR 1254 (10 OR 50 µL/PLATE), Method: PREINCUBATION); “inactive; negative” under setting [2]; “active; positive” (Test System: AMES SALMONELLA TYPHIMURIUM, Strain/Indicator: TA100, Metabolic Activation: RAT, LIVER, S-9, AROCLOR 1254 (10 OR 50 µL/PLATE ), Method: PREINCUBATION); “inactive; negative” under setting [3]; “active; positive” (Test System: AMES SALMONELLA TYPHIMURIUM, Strain/Indicator: TA1535, Metabolic Activation: RAT, LIVER, S-9, AROCLOR 1254 (10 OR 50 µL/PLATE), Method: PREINCUBATION). Moreover, the mutagenic call is “inactive; negative” under setting [4]; “inactive; negative” (Test System: AMES SALMONELLA TYPHIMURIUM, Strain/Indicator: TA1537, Metabolic Activation: RAT, LIVER, S-9, AROCLOR 1254 (10 OR 50 µL/PLATE), Method: PREINCUBATION); “inactive; negative” (Test System: E. COLI, Strain/Indicator: WP2 UVRA, Metabolic Activation: NONE, Method: PREINCUBATION); “inactive; negative” (Test System: E. COLI, Strain/Indicator: WP2 UVRA, Metabolic Activation: RAT, LIVER, S-9, AROCLOR 1254 (10 OR 50 µL/PLATE), Method: PREINCUBATION).
In the case of `O=c1n(CC2CO2)c(=O)n(CC2CO2)c(=O)n1CC1CO1` (centres undefined), the mutagenic call (End Point: IN VITRO CHROMOSOMAL ABERRATIONS, Test System: CHINESE HAMSTER LUNG CELLS (CHL), Metabolic Activation: NONE) is “active; positive (structural changes)”; the mutagenic call (End Point: IN VITRO CHROMOSOMAL ABERRATIONS, Test System: CHINESE HAMSTER LUNG CELLS (CHL), Metabolic Activation: RAT, LIVER, S-9, KC-400) was “inactive; negative”; the mutagenic call (End Point: IN VITRO CHROMOSOMAL ABERRATIONS, Test System: CHINESE HAMSTER OVARY CELLS (CHO), Metabolic Activation: NONE) is “active; positive (structural changes)”; the mutagenic call (End Point: IN VITRO CHROMOSOMAL ABERRATIONS, Test System: CHINESE HAMSTER OVARY CELLS (CHO), Metabolic Activation: RAT, LIVER, S-9, AROCLOR 1254) is “active; positive (structural changes)”; the mutagenic call (End Point: IN VITRO CHROMOSOMAL ABERRATIONS, Test System: CHL CELLS, Metabolic Activation: RAT, LIVER, S-9, SODIUM PHENOBARBITAL AND 5,6-BENZOFLAVONE) was “active; positive (structural changes)”; the mutagenic call (End Point: IN VITRO CHROMOSOMAL ABERRATIONS, Test System: CHL CELLS, Metabolic Activation: S-9) was “active; positive; interlaboratory comparison between 2 labs; all reported positive resul; also recorded: active; positive (structural changes); interlaboratory comparison between 2 labs; both r”. Moreover, the mutagenic call was “active; positive (structural changes); interlaboratory comparison between 2 labs; both r; also recorded: active; positive; interlaboratory comparison among 3 labs; all reported positive results” (End Point: IN VITRO CHROMOSOMAL ABERRATIONS, Test System: CHO CELLS, Metabolic Activation: S-9); “active; positive” (End Point: IN VITRO CHROMOSOMAL ABERRATIONS, Test System: CHO-LB CELLS, Metabolic Activation: NONE); “active; positive” (End Point: IN VITRO CHROMOSOMAL ABERRATIONS, Test System: CHO-LB CELLS, Metabolic Activation: RAT, LIVER, S-9, AROCLOR 1254); “active; positive” (Test System: AMES SALMONELLA TYPHIMURIUM, Strain/Indicator: TA98, Metabolic Activation: HAMSTER, LIVER, S-9, AROCLOR 1254 (30%), Method: PREINCUBATION); “active; positive” under setting [1]; “active; positive” (Test System: AMES SALMONELLA TYPHIMURIUM, Strain/Indicator: TA98, Metabolic Activation: RAT LIVER S-9, PHENOBARBITAL AND BETA-NAPHTHOFLAVONE, Method: PREINCUBATION). The mutagenic call is “active; positive” (Test System: AMES SALMONELLA TYPHIMURIUM, Strain/Indicator: TA98, Metabolic Activation: RAT, LIVER, S-9, AROCLOR 1254 (30%), Method: PREINCUBATION); “active; positive” (Test System: AMES SALMONELLA TYPHIMURIUM, Strain/Indicator: TA100, Metabolic Activation: HAMSTER, LIVER, S-9, AROCLOR 1254 (30%), Method: PREINCUBATION); “active; positive” under setting [2]; “active; positive” (Test System: AMES SALMONELLA TYPHIMURIUM, Strain/Indicator: TA100, Metabolic Activation: RAT LIVER S-9, PHENOBARBITAL AND BETA-NAPHTHOFLAVONE, Method: PREINCUBATION); “active; positive” (Test System: AMES SALMONELLA TYPHIMURIUM, Strain/Indicator: TA100, Metabolic Activation: RAT, LIVER, S-9, AROCLOR 1254 (30%), Method: PREINCUBATION); “active; positive” under setting [3]. The mutagenic call is “active; positive” (Test System: AMES SALMONELLA TYPHIMURIUM, Strain/Indicator: TA1535, Metabolic Activation: RAT LIVER S-9, PHENOBARBITAL AND BETA-NAPHTHOFLAVONE, Method: PREINCUBATION); “inactive; negative” under setting [4]; “inactive; negative” (Test System: AMES SALMONELLA TYPHIMURIUM, Strain/Indicator: TA1537, Metabolic Activation: RAT LIVER S-9, PHENOBARBITAL AND BETA-NAPHTHOFLAVONE, Method: PREINCUBATION); “inactive; negative” (Test System: E.COLI, Strain/Indicator: WP2UVRA, Metabolic Activation: NONE, Method: PREINCUBATION); “inactive; negative” (Test System: E.COLI, Strain/Indicator: WP2UVRA, Metabolic Activation: RAT LIVER S-9, PHENOBARBITAL AND BETA-NAPHTHOFLAVONE, Method: PREINCUBATION).
Consider `c1scc2c1-c1cscc1C1NC21` (centres undefined), for which the mutagenic call by setting is: under setting [5], “active; positive”; under setting [6], “active; positive”.
With `CC(=O)OC1Cc2ccc3ccc4cccc5cc1c2c3c45` (centres undefined), the mutagenic call was “active; positive” under setting [5] and “active; positive” under setting [6].
As for `O[C@H]1C=Cc2cccc3c2[C@@]1(O)c1ccccc1-3`, the mutagenic call reads like this: (Test System: AMES SALMONELLA TYPHIMURIUM, Strain/Indicator: TM677, Metabolic Activation: NONE, Method: PREINCUBATION) “inactive; negative”; (Test System: AMES SALMONELLA TYPHIMURIUM, Strain/Indicator: TM677, Metabolic Activation: RAT, LIVER, POSTMITOCHONDRIAL SUPERNATANT, AROCLOR 1254, Method: PREINCUBATION) “inactive; negative”.
In the case of `CC1(C)Cc2ncccc2-c2nc(N)sc21`, the mutagenic call (Test System: AMES SALMONELLA TYPHIMURIUM, Strain/Indicator: TA1538, Metabolic Activation: RAT, LIVER, S-9, AROCLOR 1254, Method: STANDARD PLATE) was “active; positive”.
For the molecule `O=[N+]([O-])c1cc2cccc([N+](=O)[O-])c2c2ccccc12`, the mutagenic call by setting is: (Test System: AMES SALMONELLA TYPHIMURIUM, Strain/Indicator: TA98(1,8-DNP6), Metabolic Activation: NONE, Method: STANDARD PLATE) “active; positive”; (Test System: AMES SALMONELLA TYPHIMURIUM, Strain/Indicator: TA98(NR), Metabolic Activation: NONE, Method: STANDARD PLATE) “active; positive”; under setting [5], “active; positive”; under setting [6], “active; positive”; (Test System: AMES SALMONELLA TYPHIMURIUM, Strain/Indicator: YG1021, Metabolic Activation: NONE, Method: STANDARD PLATE) “active; positive”; (Test System: AMES SALMONELLA TYPHIMURIUM, Strain/Indicator: YG1024, Metabolic Activation: NONE, Method: STANDARD PLATE) “active; positive”. Also, the mutagenic call was “active; positive” (Test System: AMES SALMONELLA TYPHIMURIUM, Strain/Indicator: YG1026, Metabolic Activation: NONE, Method: STANDARD PLATE) and “active; positive” (Test System: AMES SALMONELLA TYPHIMURIUM, Strain/Indicator: YG1029, Metabolic Activation: NONE, Method: STANDARD PLATE).
Take `O[C@@H]1[C@@H]2O[C@@H]2c2cc3c(ccc4ccccc43)cc2[C@H]1O`: the mutagenic call (Test System: CHINESE HAMSTER V-79, Strain/Indicator: V-79/8-AZAGUANINE, Metabolic Activation: NONE, Method: STANDARD PLATE) was “active; positive”.
